Test results published in patent publication US10993935B2, “Compositions and methods for treatment of lung infections” (priority 2018, dated 2021).

Tests used:
[1] = Particle (droplet) size analysis of aerosol drugs; format: physicochemical; settings: 60 mg/mL; TOB in 0.225% saline, RFX in 100% DMSO; nebulizer aerosol, Malvern Spraytec
Method: Particle Size Analysis of Aerosol Drugs. Droplet size analysis of drugs used for aerosol therapy was conducted by Spray Analytics (Lincolnshire, Ill.). Samples of TOB in 0.225% saline and RFX in 100% DMSO at concentrations of 60 mg/mL for both were prepared and submitted along with nebulizer unit used for animal experiments. A Malvern Spraytec was used for analysis with the tested product sprayed horizontally at less than 5 cm from the detector beam. The samples were measured in triplicates for 20-30 seconds of stable operation of the nebulizer. Refractive index and absorption values used were that of DMSO for RFX and water for TOB.
The potential adverse effects of using DMSO were first assessed by nebulizing DMSO alone to a group of C57BL/6 mice (n=8). This type of mice was used due to their natural resistance against infection based on our previous studies. […] Next, the delivery of both RFX and TOB via nebulization was optimized. […] To determine the dosage of each drug received by the mice, the lungs were homogenized and drug concentrations of TOB and RFX were determined via ELISA and HPLC, respectively. […] The droplet size for both TOB and RFX were determined to be identical with the average droplet size for TOB and RFX being 5.07 μm and 5.02 μm, respectively.

[2] = tested on: P. aeruginosa PAO1; assay: Murine pneumonia model, single-dose treatment, survival; format: in vivo, DBA/2 mice; settings: 12 mice per group
Method: Kaplan-Meier curves showing percent survival of DBA/2 mice with P. aeruginosa PAO1 infection after treatment with RFX or TOB at 0 h post-infection (FIG. 5A), 6 h post-infection (FIG. 5B), and 12 h post-infection (FIG. 5C). Data shown represent means of 12 mice per group. The Mantel-Cox test was used with significance set at a P value of <0.01 and showing standard error (SE) bars.
Murine Pneumonia Model Treatment. TOB or RFX were used to treat P. aeruginosa respiratory infection in a DBA/2 mouse model established previously. Lung infection was induced by a single exposure to a total of 84 male DBA/2 mice of 8 week old (Charles River Laboratories) to P. aeruginosa PAO1 aerosols, which was prepared as previously reported. Immediately after infection, the mice were separated into seven groups (n=12 per group): 1) control with no treatment, 2) treatment with 300 mg TOB immediately after infection, 3) treatment with 300 mg RFX immediately after infection, 4) treatment with 300 mg TOB 6 h after infection, 5) treatment with 300 mg RFX 6 h after infection, 6) treatment with 300 mg TOB 12 h after infection, or 7) treatment with 300 mg RFX 12 h after infection. Each experimental group was treated with TOB or RFX with a control group treated with PBS following the nebulization protocol as described above. The mice were monitored for survival at 12 hour intervals for 72 hours and then at 24 hour intervals for 6 weeks.
After establishing the dosing of TOB or RFX to efficiently reach the lungs, the efficacy of both drugs against P. aeruginosa lung infections was compared using an established mouse model. DBA/2 (n=84) male mice were first infected with aerosolized P. aeruginosa PAO1 in a whole-body exposure chamber as previously described. The mice were then separated into four groups. One group was left untreated to determine the rate of mortality (control). The remaining three groups were treated with RFX or TOB using a pressure-based nebulizer and whole-body exposure chamber at a concentration of 300 mg at 0 h, 6 h, or 12 h post infection. All control mice died within 5 days (FIGS. 5A-5C), consistent with what was previously reported. […] In the 12 h treatment group, 83% of mice treated with RFX survived, while only 50% of mice treated with TOB survived (FIG. 5C).

[3] = tested on: P. aeruginosa strains; assay: MIC and synergy testing (checkerboard/isobologram) of RFX and TOB; format: cell-based, Pseudomonas aeruginosa; settings: for MIC TOB: TOB alone; for MIC TOB in Combination: in combination with RFX; for MIC RFX: RFX alone; for MIC RFX in Combination: in combination with TOB
Method: Minimum Inhibitory Concentration Testing. MIC testing was performed as previously described. Briefly, overnight culture of bacteria was diluted in 1:100 of a 0.5 McFarland standard as inoculum. The same number of cells was grown in LB broth containing serial, two-fold dilutions of rifaximin (RFX) or tobramycin (TOB). Growth was measured via optical density (OD) at 600 nm after 24 h incubation at 37° C. Concentrations of antibiotic required for inhibition of 50% and 90% of strains were determined.
Synergy Testing. Synergistic potential of RFX and TOB was performed by isobologram (checkerboard) analysis in 96-well plate format Briefly, PIB containing serial dilutions of each drug were plated in 64 wells of a 96-well plate with one drug vertically plated and the other horizontally plated. Bacterial cells of P. aeruginosa were grown 4 to 6 hours to an early log phase and then added to the wells of the plate. Growth in the wells was measured via OD at 600 nm after 24 h incubation at 37° C. The MIC and Fractional Inhibition Concentration (FIC) were calculated to determine synergism, antagonism or additivity between the tested strains of P. aeruginosa: PAO1, PAO581, PAO581 isogenic mutant, CF001, and CF010. The summative ΣFTC was calculated from the FICs and interpreted according to the standard index values: synergy ≤0.5; indifferent 0.5< to ≤4; antagonism >4. […]

[4] = 300 mg nebulized at 0 h after infection
[5] = 300 mg nebulized at 6 h post infection
[6] = 300 mg nebulized at 12 h post infection

Compound: NC[C@H]1O[C@H](O[C@H]2[C@H](O)[C@@H](O[C@H]3O[C@H](CO)[C@@H](O)[C@H](N)[C@H]3O)[C@H](N)C[C@@H]2N)[C@H](N)C[C@@H]1O [TOB, tobramycin]
- average droplet size [1]: 5.07 μm
- survival [2, 4]: 92%
- survival [2, 5]: 58%
- survival [2, 6]: 50%
- FIC TOB ([3]; strain CF001, M): 0.25
- MIC TOB ([3]; strain CF001, M): 2
- MIC TOB in Combination ([3]; strain CF001, M): 0.5
- MIC TOB ([3]; strain CF003, NM): 2
- MIC TOB in Combination ([3]; strain CF003, NM): 0.25
- FIC TOB ([3]; strain CF010, M): 0.25
- MIC TOB ([3]; strain CF010, M): 2
- MIC TOB in Combination ([3]; strain CF010, M): 0.5
- FIC TOB ([3]; strain PAO1, NM): 0.125
- MIC TOB ([3]; strain PAO1, NM): 2
- MIC TOB in Combination ([3]; strain PAO1, NM): 0.25
- FIC TOB ([3]; strain PAO581, M): 0.25
- MIC TOB ([3]; strain PAO581, M): 2
- MIC TOB in Combination ([3]; strain PAO581, M): 0.5
- FIC TOB ([3]; strain PAO581 NM revertant): 0.25
- MIC TOB ([3]; strain PAO581 NM revertant): 2
- MIC TOB in Combination ([3]; strain PAO581 NM revertant): 0.5

Compound: CO[C@H]1/C=C/O[C@@]2(C)Oc3c(C)c(O)c4c(O)c(c5c(nc6cc(C)ccn65)c4c3C2=O)NC(=O)/C(C)=C\C=C\[C@H](C)[C@H](O)[C@@H](C)[C@@H](O)[C@@H](C)[C@H](OC(C)=O)[C@@H]1C [RFX, rifaximin]
- average droplet size [1]: 5.02 μm
- survival [2, 4]: 100%
- survival [2, 5]: 92%
- survival [2, 6]: 83%
- FIC RFX ([3]; strain CF001, M): 0.25
- MIC RFX ([3]; strain CF001, M): 16
- MIC RFX in Combination ([3]; strain CF001, M): 4
- MIC RFX ([3]; strain CF003, NM): 4
- FIC RFX ([3]; strain CF010, M): 0.25
- MIC RFX ([3]; strain CF010, M): 8
- MIC RFX in Combination ([3]; strain CF010, M): 2
- FIC RFX ([3]; strain PAO1, NM): 0.25
- MIC RFX ([3]; strain PAO1, NM (non-mucoid)): 16
- MIC RFX in Combination ([3]; strain PAO1, NM): 4
- FIC RFX ([3]; strain PAO581, M): 0.25
- MIC RFX ([3]; strain PAO581, M (mucoid)): 16
- MIC RFX in Combination ([3]; strain PAO581, M): 4
- FIC RFX ([3]; strain PAO581 NM revertant): 0.25
- MIC RFX ([3]; strain PAO581 NM revertant): 16
- MIC RFX in Combination ([3]; strain PAO581 NM revertant): 4
